According to the CheMixHub drug solubility set:

Assay: xn = mol fraction of the nth substance listed, in the solute-free solvent

CCC(C(C)O)n1ncn(-c2ccc(N3CCN(c4ccc(OCC5COC(Cn6cncn6)(c6ccc(F)cc6F)C5)cc4)CC3)cc2)c1=O (configuration not stated) + CCOC(C)=O + CCO
solubility (g/100 g solution)
Conditions	273.15 K	278.15 K	283.15 K	288.15 K	293.15 K	298.15 K	303.15 K	308.15 K	313.15 K
x2 = 0.05491	0.0447	0.057	0.0728	0.0894	0.109	0.13	0.151	0.174	0.201
x2 = 0.1156	0.0657	0.084	0.104	0.125	0.148	0.173	0.2	0.229	0.264
x2 = 0.1831	0.106	0.131	0.158	0.188	0.217	0.251	0.289	0.33	0.38
x2 = 0.2585	0.144	0.174	0.207	0.243	0.28	0.323	0.37	0.422	0.484
x2 = 0.3434	0.162	0.191	0.227	0.265	0.308	0.358	0.417	0.486	0.561
x2 = 0.4396	0.142	0.171	0.202	0.237	0.27	0.311	0.359	0.412	0.48
x2 = 0.5496	0.112	0.137	0.163	0.192	0.221	0.253	0.285	0.321	0.36
x2 = 0.6765	0.0924	0.114	0.136	0.158	0.182	0.206	0.232	0.259	0.294
x2 = 0.8247	0.0667	0.0831	0.101	0.119	0.138	0.158	0.182	0.21	0.24

Cc1ccc(Nc2nccc(N(C)c3ccc4c(C)n(C)nc4c3)n2)cc1S(N)(=O)=O + CCO + CC#N
solubility (g/100 g solution)
Conditions	288.15 K	293.15 K	298.15 K	303.15 K	308.15 K	313.15 K	318.15 K	323.15 K	328.15 K
x2 = 0.1822	0.0124	0.029	0.0444	0.063	0.0838	0.104	0.125	0.149	0.177
x2 = 0.3727	0.026	0.0514	0.0739	0.101	0.129	0.157	0.187	0.22	0.258
x2 = 0.572	0.0528	0.0704	0.0887	0.11	0.133	0.16	0.189	0.221	0.256
x2 = 0.7809	0.0195	0.035	0.0514	0.0677	0.086	0.104	0.123	0.145	0.17

CS(=O)(=O)c1ccc(C(O)C(CF)NC(=O)C(Cl)Cl)cc1 (configuration not stated) + CO + O
solubility (g/100 g solution)
Conditions	278.15 K	283.15 K	288.15 K	293.15 K	298.15 K	303.15 K	308.15 K	313.15 K	318.15 K
x2 = 0.05881	0.163	0.211	0.278	0.358	0.449	0.571	0.711	0.881	1.09
x2 = 0.1233	0.379	0.485	0.609	0.762	0.939	1.15	1.41	1.71	2.06
x2 = 0.1942	0.707	0.878	1.08	1.31	1.58	1.9	2.27	2.68	3.17
x2 = 0.2727	1.06	1.32	1.6	1.93	2.31	2.78	3.28	3.88	4.53
x2 = 0.3599	1.47	1.83	2.25	2.71	3.25	3.88	4.58	5.45	6.34
x2 = 0.4576	1.92	2.4	2.94	3.6	4.3	5.17	6.17	7.3	8.52
x2 = 0.5675	2.52	3.12	3.82	4.64	5.63	6.76	7.98	9.5	11
x2 = 0.6923	3.16	3.96	4.85	5.92	7.07	8.44	10.1	11.9	13.7
x2 = 0.835	3.91	4.85	5.98	7.23	8.65	10.3	12.2	14.2	16.5

COC(=O)C1=C(C)NC(C)=C(C(=O)OCC(C)C)C1c1ccccc1[N+](=O)[O-] (configuration not stated) + CC#N + O
solubility (g/100 g solution)
Conditions	278.15 K	283.15 K	288.15 K	293.15 K	298.15 K	303.15 K	308.15 K	313.15 K	318.15 K
x2 = 0.04651	0.165	0.218	0.288	0.377	0.488	0.61	0.767	0.973	1.21
x2 = 0.0989	0.678	0.855	1.1	1.36	1.7	2.08	2.53	3.12	3.73
x2 = 0.1583	1.3	1.62	2.02	2.51	3.07	3.73	4.57	5.46	6.5
x2 = 0.2264	2.08	2.58	3.1	3.86	4.65	5.62	6.61	7.85	9.2
x2 = 0.3051	2.84	3.54	4.32	5.15	6.3	7.5	8.79	10.4	12.1
x2 = 0.397	3.75	4.65	5.65	6.7	8.1	9.55	11.2	13.1	15.2
x2 = 0.506	4.72	5.77	6.86	8.3	9.96	11.8	13.7	15.7	18
x2 = 0.6372	5.69	6.77	8.36	9.95	11.7	13.6	15.7	18.2	20.7
x2 = 0.798	6.56	7.83	9.45	11.2	13.1	15.2	17.6	20.2	22.9

COC(=O)C1=C(C)NC(C)=C(C(=O)OCC(C)C)C1c1ccccc1[N+](=O)[O-] (configuration not stated) + CCO + O
solubility (g/100 g solution)
Conditions	278.15 K	283.15 K	288.15 K	293.15 K	298.15 K	303.15 K	308.15 K	313.15 K	318.15 K
x2 = 0.08908	0.379	0.503	0.648	0.817	0.987	1.2	1.42	1.68	1.99
x2 = 0.2068	1.23	1.53	1.87	2.25	2.73	3.28	3.94	4.74	5.64
x2 = 0.3698	1.72	2.14	2.63	3.16	3.79	4.51	5.31	6.22	7.38
x2 = 0.6101	2.18	2.75	3.38	4.12	5	6	7.01	8.24	9.61

Clc1ncnc2[nH]ccc12 + C1CCOC1 + CCOC(C)=O
solubility (g/100 g solution)
Conditions	278.15 K	283.15 K	288.15 K	293.15 K	298.15 K	303.15 K	308.15 K	313.15 K	318.15 K	323.15 K
x2 = 0.1937	2.62	2.95	3.32	3.75	4.21	4.72	5.25	5.79	6.4	7.07
x2 = 0.3753	3.46	3.9	4.38	4.87	5.45	6.03	6.66	7.34	8.06	8.83
x2 = 0.5458	4.65	5.2	5.79	6.4	7.13	7.83	8.57	9.41	10.2	11.2
x2 = 0.6272	5.34	5.93	6.58	7.23	8	8.79	9.64	10.5	11.4	12.4
x2 = 0.7061	5.97	6.66	7.32	8.1	8.9	9.77	10.6	11.5	12.6	13.5
x2 = 0.8573	7.35	8.08	8.82	9.69	10.6	11.6	12.5	13.5	14.6	15.7

O=c1[nH]cc(F)c(=O)[nH]1 + CCCO + C1CCOC1
solubility (g/100 g solution)
Conditions	283.15 K	288.15 K	293.15 K	298.15 K	303.15 K	308.15 K	313.15 K	318.15 K	323.15 K
x2 = 0.2307	0.148	0.169	0.195	0.226	0.263	0.313	0.373	0.452	0.536
x2 = 0.4444	0.17	0.196	0.225	0.258	0.299	0.351	0.42	0.496	0.588
x2 = 0.6428	0.201	0.229	0.258	0.297	0.34	0.397	0.467	0.543	0.625
x2 = 0.8276	0.228	0.263	0.298	0.34	0.393	0.457	0.539	0.651	0.763

CCC(C(C)O)n1ncn(-c2ccc(N3CCN(c4ccc(OCC5COC(Cn6cncn6)(c6ccc(F)cc6F)C5)cc4)CC3)cc2)c1=O (configuration not stated) + CCOC(C)=O + CC(C)O
solubility (g/100 g solution)
Conditions	273.15 K	278.15 K	283.15 K	288.15 K	293.15 K	298.15 K	303.15 K	308.15 K	313.15 K
x2 = 0.07045	0.00869	0.0113	0.015	0.0192	0.0237	0.0294	0.0352	0.0423	0.0504
x2 = 0.1457	0.0114	0.0145	0.0186	0.023	0.0283	0.0344	0.0415	0.049	0.058
x2 = 0.2262	0.0148	0.0192	0.0245	0.0306	0.0374	0.0445	0.0524	0.0621	0.0721
x2 = 0.3126	0.0191	0.0242	0.0305	0.0373	0.0452	0.0542	0.0641	0.0753	0.0897
x2 = 0.4055	0.0249	0.0308	0.039	0.0482	0.0589	0.071	0.0837	0.0987	0.119
x2 = 0.5057	0.0321	0.0401	0.0493	0.0608	0.0728	0.0857	0.103	0.121	0.145
x2 = 0.6141	0.0354	0.0469	0.0581	0.0726	0.0862	0.101	0.118	0.14	0.164
x2 = 0.7318	0.0383	0.0499	0.0636	0.0793	0.0965	0.115	0.135	0.16	0.186
x2 = 0.8599	0.0405	0.0522	0.066	0.0819	0.101	0.12	0.142	0.166	0.193
